One data set concerns P. aeruginosa AKR17. Description: in vitro antibacterial activity, agar plate dilution method (MIC). Type of data set: cell-based. The following applies: for MIC: Pseudomonas aeruginosa, AKR17, 16 h, read-out: Minimum Inhibitory Concentration (MIC). The procedure: (§1) One platinum loopful of each test microorganism incubated overnight in Mueller Hinton broth, was inoculated to Mueller Hinton agar (inoculum size: 10^6 CFU/ml). Such culture media contained antibacterial agents in various concentrations. After incubation at 37° C. for 16 hours, the minimum inhibitory concentrations (MIC: μg/ml) were measured.

Another data set relates to P. aeruginosa MB5000. Described as above. The format is cell-based. The following applies: for MIC: Pseudomonas aeruginosa, MB5000, 16 h, read-out: Minimum Inhibitory Concentration (MIC). The procedure:
as §1

The next data set deals with P. aeruginosa MB5002. The description is as above. The following applies: for MIC: Pseudomonas aeruginosa, MB5002, 16 h, read-out: Minimum Inhibitory Concentration (MIC). The format is cell-based. The procedure: as §1
A further data set has as its system Meth-R S. aureus. Kind of data set: disc diffusion test, relative antibacterial potency to thienamycin. Type of data set: cell-based. Conditions: ratio to thienamycin (=1.0), larger = higher activity. The procedure:
(§2) The antibacterial activities of the compounds of the present invention described in the Examples, as representative examples of the compound of the present invention, were measured by a disc diffusion test by the method of Bauer et al. (Amer. J. Clin. Pathol., vol. 45, p. 493 (1966)). Thienamycin or imipenem was used as the internal standard.
(§3) MIC of each test compound was calculated from the diameter of the inhibition ring formed by the disc containing the test compound by using the calculation formula reported by Humphrey and Lightbown (J. Gen. Microbiol., vol. 7, p. 129 (1952)). For each microorganism, a geometrical average of MIC was obtained, and the activity ratio to thienamycin was calculated.
(§4) The antibacterial activities are represented by the ratio to thienamycin (=1.0), whereby the larger the numerical value, the higher the activities.

The next data set concerns THM-R P. aeruginosa. The data set is described as above. Type of data set: cell-based. The following applies: ratio to thienamycin (=1.0), larger = higher activity. The procedure:
as §2, §3, §4

Another data set relates to DHP-I. Description: DHP-I susceptibility (method by Kropp et al.). The format is in vitro ADME. An excerpt: The DHP-I susceptibility was quantitatively analyzed by the method by Kropp et al., Antimicrob. Agents Chemother., vol. 22, p. 62-70 (1982), whereby the smaller the numerical value representing the ratio to imipenem (=1.0), the higher the stability. The antibacterial potency and the DHP-I susceptibility of the compounds of the present invention were compared with imipenem and meropenem.

The subject of data set [1] is gram positive bacteria and gram negative bacteria. Conditions: background; cited from earlier work.
The conditions of data set [2]: background, cited from earlier work.
A further data set has as its system β-lactamase. The following applies: background; cited from earlier work.
The conditions of data set [3]: due to the decomposition products; cited from earlier work.
Data set [4] concerns DHP-I in the human kidney. Conditions: background; cited from earlier work.
The test system of data set [5] is highly methicillin resistant Staphylococcus aureus which is resistant to imipenem and imipenem resistant Pseudomonas aeruqinosa. Conditions: background; cited from earlier work.
The test system of data set [6] is highly methicillin resistant Staphylococcus aureus. Conditions: background; cited from earlier work.
Data set [7] relates to renal dehydropeptidase I (DHP-I). Conditions: background; cited from earlier work.
For data set [8] the following is noted: background; cited from earlier work.
The mark [9] stands for this setting: P. aeruginosa AKR17 (lactamase producing microorganism), Mueller Hinton agar, 10^6 CFU/ml, 37° C., 16 hours.
The mark [10] stands for this setting: P. aeruginosa MB5000, Mueller Hinton agar, 10^6 CFU/ml, 37° C., 16 hours.
[11] abbreviates: P. aeruginosa MB5002, Mueller Hinton agar, 10^6 CFU/ml, 37° C., 16 hours.
Where [12] appears, read: ratio to imipenem (=1.0), smaller = higher stability.

In brackets after ≈: the same amount, converted by molar mass. Where two headings read alike, the source gives them in different places. Bounds are passed on as bounds.

On to `C[C@@H](O)[C@H]1C(=O)N2C(C(=O)O)=C(S[C@@H]3CN[C@H](C4CCNC4)C3)[C@H](C)[C@H]12` (single isomer, unassigned) [Example 11 Diastereomer A], for which the values for the MIC in the data set on P. aeruginosa AKR17 (setting [9]), in the data set with P. aeruginosa MB5000 (setting [10]) and with P. aeruginosa MB5002 (setting [11]) were 0.78 µg/mL (≈ 2.04 µM), 0.1 µg/mL (≈ 0.262 µM) and 0.78 µg/mL (≈ 2.04 µM), respectively. Further, the “Relative antibacterial potency to thienamycin” value (“Relative antibacterial potency” for short) in the data set on Meth-R S. aureus turned out to be 15.2; in the data set on THM-R P. aeruginosa, 12.7. Moreover, the DHP-I susceptibility in the data set with DHP-I (setting [12]) is less than 0.05.
Turning to `C[C@@H](O)[C@H]1C(=O)N2C(C(=O)O)=C(S[C@@H]3CN[C@H](C4CCNC4)C3)[C@H](C)[C@H]12` (single isomer, unassigned) [Example 11 Diastereomer B], the “Minimum Inhibitory Concentration (MIC)” value in the data set with P. aeruginosa AKR17 (setting [9]) was 1.56 µg/mL; in the data set with P. aeruginosa MB5000 (setting [10]), 0.2 µg/mL; in the data set on P. aeruginosa MB5002 (setting [11]), 1.56 µg/mL. In addition, the “Relative antibacterial potency” value in the data set on Meth-R S. aureus was determined as 12.3; in the data set on THM-R P. aeruginosa, 11.5. Moreover, the DHP-I susceptibility with DHP-I (setting [12]) is less than 0.05.
As for `C[C@@H](O)[C@H]1C(=O)N2C(C(=O)O)=C(S[C@@H]3CN[C@H](C4CCN(C)C4)C3)[C@H](C)[C@H]12` (single isomer, unassigned) [Example 12 Diastereomer A], the MIC in the data set on P. aeruginosa AKR17 (setting [9]) and with P. aeruginosa MB5002 (setting [11]) was 1.56 µg/mL (≈ 3.94 µM) in each case.
In the case of `C[C@@H](O)[C@H]1C(=O)N2C(C(=O)[O-])=C(S[C@@H]3CN[C@H](C4CC[N+](C)(C)C4)C3)[C@H](C)[C@H]12` (single isomer, unassigned) [Example 13 Diastereomer A], the MIC is 1.56 µg/mL (≈ 3.81 µM) with P. aeruginosa AKR17 (setting [9]), 0.2 µg/mL (≈ 0.488 µM) in the data set on P. aeruginosa MB5000 (setting [10]) and 0.78 µg/mL (≈ 1.9 µM) in the data set on P. aeruginosa MB5002 (setting [11]).
`C[C@@H](O)[C@H]1C(=O)N2C(C(=O)[O-])=C(S[C@@H]3CN[C@H](C4CC[N+](C)(C)C4)C3)[C@H](C)[C@H]12` (single isomer, unassigned) [Example 13]: in the data set on THM-R P. aeruginosa, the “Relative antibacterial potency” value is recorded as 11.5. Also, in the data set on DHP-I (setting [12]), the DHP-I susceptibility was less than 0.05.
For `C[C@@H](O)[C@H]1C(=O)N2C(C(=O)O)=C(S[C@@H]3CN[C@H](CC4CN[C@H](C(N)=O)C4)C3)[C@H](C)[C@H]12` (stereo partly drawn) [Example 32, (1R, 5S,6S)-2-[(2R,4S)-2-[(2S)-2-carbamoylpyrrolidin-4-ylmethyl]pyrrolidin-4-ylthio]-6-[(R)-1-hydroxyethyl]-1-methyl-1-carbapen-2-em-3-carboxylic acid] the same measures were 19.5 and less than 0.05.
In the case of `C[C@@H](O)[C@H]1C(=O)N2C(C(=O)O)=C(S[C@@H]3CN[C@H](CC4CN[C@H](C(=O)N(C)C)C4)C3)[C@H](C)[C@H]12` (stereo partly drawn) [Example 34, (1R,5S,6S)-6-[(R)-1-hydroxyethyl]-1-methyl-2-[(2R,4S)-2-[(2S)-2-(dimethylcarbamoyl)pyrrolidin-4-ylmethyl]pyrrolidin-4-ylthio]-1-carbapen-2-em-3-carboxylic acid], the entries for the “Relative antibacterial potency” value in the data set on Meth-R S. aureus and with THM-R P. aeruginosa were 22.7 and 21.6, respectively. Moreover, the DHP-I susceptibility in the data set on DHP-I (setting [12]) is 0.07.
Take `C[C@@H](O)[C@H]1C(=O)N2C(C(=O)O)=C(S[C@@H]3CN[C@H](C4CCNCC4)C3)[C@H](C)[C@H]12` [Example 43, (1R,5S,6S)-6-[(R)-1-hydroxyethyl]-1-methyl-2-[(2S,4S)-2-(piperidin-4-yl)pyrrolidin-4-ylthio]-1-carbapen-2-em-3-carboxylic acid]: the MIC amounted to 1.56 µg/mL (≈ 3.94 µM) in the data set with P. aeruginosa AKR17 (setting [9]), 0.1 µg/mL (≈ 0.253 µM) with P. aeruginosa MB5000 (setting [10]) and 0.39 µg/mL (≈ 0.986 µM) in the data set with P. aeruginosa MB5002 (setting [11]).
For the molecule `C[C@@H](O)[C@H]1C(=O)N2C(C(=O)O)=C(S[C@@H]3CN[C@H](C4CCN(C)CC4)C3)[C@H](C)[C@H]12` [Example 49], the results for the MIC with P. aeruginosa AKR17 (setting [9]), in the data set with P. aeruginosa MB5000 (setting [10]) and with P. aeruginosa MB5002 (setting [11]) were 1.56 µg/mL (≈ 3.81 µM), 0.2 µg/mL (≈ 0.488 µM) and 0.78 µg/mL (≈ 1.9 µM), respectively. For the same molecule, the “Relative antibacterial potency” value in the data set on Meth-R S. aureus came to 13.6; in the data set on THM-R P. aeruginosa, 13.8. Besides, the DHP-I susceptibility with DHP-I (setting [12]) was 0.10.
Take `C[C@@H](O)[C@H]1C(=O)N2C(C(=O)O)=C(SCCN=CN)C[C@H]12` [Imipenem, (5R,6S,8R)-3-[[2-(formimidoylamino)ethyl]thio]-6-(1-hydroxyethyl)-7-oxo-1-azabicyclo[3.2.0]hept-2-en-2-carboxylic acid monohydrate, reference compound]: the MIC stood at 6.25 µg/mL in the data set with P. aeruginosa AKR17, 1.56 µg/mL with P. aeruginosa MB5000 and 3.13 µg/mL with P. aeruginosa MB5002. Moreover, the “Relative antibacterial potency” value in the data set with Meth-R S. aureus came out at 2.57; with THM-R P. aeruginosa, 2.0. For the same molecule, in the data set on DHP-I (setting [12]), the DHP-I susceptibility came to 1.0. Also, in data set [1], the antibacterial activities result is “equal or higher level than thienamycin against various types of bacteria”. The “stability in the solid form or in an aqueous solution” value in data set [2] (compared with thienamycin) is “remarkably improved over thienamycin”. In addition, the β-lactamase resistance entry in the data set on β-lactamase is “has β-lactamase resistance”. Besides, in data set [3], the “toxicity against the kidney” value is “presents toxicity against the kidney due to the decomposition products”. The “decomposition by DHP-I in the human kidney” value in data set [4] was “likely to be decomposed by DHP-I in the human kidney”. Besides, the “treating effects against resistant bacteria” value in data set [5] was “does not show adequate treating effects against these resistant bacteria”.
`C[C@@H](O)[C@H]1C(=O)N2C(C(=O)O)=C(S[C@@H]3CN[C@H](C(=O)N(C)C)C3)[C@H](C)[C@H]12` [Meropenem, (4R,5S,6S,8R,2'S,4'S)-6-(1-hydroxyethyl)-4-methyl-3-[2-(N,N-dimethylaminocarbonyl)-pyrrolidin-4-ylthio]-7-oxo-1-azabicyclo[3.2.0]hept-2-en-2-carboxylic acid, reference compound]: the MIC is 3.13 µg/mL (≈ 8.16 µM) in the data set with P. aeruginosa AKR17 (setting [9]), 0.39 µg/mL (≈ 1.02 µM) in the data set with P. aeruginosa MB5000 (setting [10]) and 6.25 µg/mL (≈ 16.3 µM) in the data set with P. aeruginosa MB5002 (setting [11]). The “Relative antibacterial potency” value is given as 3.22 in the data set with Meth-R S. aureus and 6.9 in the data set with THM-R P. aeruginosa. The DHP-I susceptibility with DHP-I was 0.12. Besides, in data set [6], the “antibacterial activities against highly methicillin resistant Staphylococcus aureus” value is “not adequate”. In addition, in data set [7], the “decomposition by / stability against DHP-I” value is listed as “substantially improved”.
With `C[C@@H](O)[C@H]1C(=O)N2C(C(=O)O)=C(SCCN)C[C@H]12` [Thienamycin, thienamycin], in data set [1], the antibacterial activities result was “strong antibacterial activities over a wide range against gram positive bacteria and gram negative bacteria”. For the same molecule, the “decomposition by / stability against DHP-I” value in data set [7] is listed as “likely to be decomposed by a certain enzyme in vivo such as renal dehydropeptidase I”. In data set [2], the chemical stability result is “chemically unstable”. For the same molecule, the “recovery rate in the urine” value in data set [8] is recorded as “low”. Besides, in [4], the “decomposition by DHP-I in the human kidney” value is listed as “likely to be decomposed by DHP-I in the human kidney”.

The values above are taken from patent US5374720A, “2-(substituted pyrrolidinylthio)carbapenem derivatives” (Banyu Pharmaceutical Co., Ltd., priority 1990, dated 1994).
